Source: patent US7432276B2, “ABCA1 elevating compounds” (CV Therapeutics, Inc., priority 2005, dated 2008)

Tested on: ABCA1 mRNA
Assay: ABCA1 mRNA induction in THP-1 cells, QuantiGene branched DNA assay
Assay type: cell-based
Settings: 10 μM test compound, 18-20 hours; for fold induction at 10 µM: Homo sapiens, read-out: ABCA1 Induction Fold Increase over DMSO Vehicle
Description: Modulation of expression of ABCA1 mRNA levels by the compounds of the invention was determined in the following assays.
Induction of ABC1 in THP-1 cells, was measured using QuantiGene® branched DNA assay as per manufacturer's instructions. Cultures of THP-1 were grown to subconfluence in DMEM/10% FBS before replacement with DMEM/BSA and 10 and 3 μM concentrations of the test compounds in DMSO for 18-20 hours. After treatment of cells with compounds, the cells were lysed with lysis buffer at 37° C. for 20 minutes. The cell lysate and ABCA1 specific probe (Genospectra, Inc., Fremont, Calif.) mix were added to the 96 well capture plate and hybridized at 53° C. for 16-18 hours. The signal was amplified using the amplifier and label probes provided with the QuantiGene® assay followed by addition of a luminescent alkaline phosphatase substrate, dioxitane. Luminescence was quantified in Victor V plate reader.
Step 1 • Cells are lysed to release mRNA in the presence of target probes. Target mRNA from lysed cells was then captured by hybridization and transferred to the Capture Plate.
Step 2 • Signal amplification was performed by hybridization of the bDNA Amplifier and Label Probe.
Step 3 • Addition of chemiluminescence substrate yielded a QuantiGene® signal proportional to the amount of mRNA present in the sample.
Table 1 presents the relative fold increase in ABCA1 expression over DMSO for various compounds of the invention when tested at a concentration of […].

COc1cccc2c1OC[C@@H]1[C@H]2Nc2ccc(C(C)C)cc2C1(C)C [Number 46, (6aS,12aR)-4-methoxy-7,7-dimethyl-9-(methylethyl)-7,12,12a,6a-tetrahydrochromano[4,3-b]quinoline]
ABCA1 Induction Fold Increase over DMSO Vehicle: 4.2 FOLD INCREASE

Cc1cccc2c1OCC1C2Nc2ccccc2C1(C)C (stereo not shown) [Number 31, 4,7,7-trimethyl-7,12,12a,6a-tetrahydrochromano[4,3-b]quinoline]
ABCA1 Induction Fold Increase over DMSO Vehicle: 5.5 FOLD INCREASE

methylethyl 3-(4-methoxy-7,7-dimethyl-7,12-dihydro-6H-chromeno[4,3-b]quinolin-9-yl)benzoate [Number 61]
ABCA1 Induction Fold Increase over DMSO Vehicle: 2.0 FOLD INCREASE

CCOP(=O)(Cc1ccc2c(c1)C(C)(C)C1COc3cccc(OC)c3C1N2)OCC (stereo not shown) [Number 90, diethoxy[(1-methoxy-7,7-dimethyl(7,12,12a,6a-tetrahydrochromano[4,3-b]quinolin-9-yl))methyl]phosphino-1-one]
ABCA1 Induction Fold Increase over DMSO Vehicle: 7.6 FOLD INCREASE

COc1cccc2c1OC[C@@H]1[C@@H]2Nc2ccc(Br)cc2C1(C)C [Number 87, (12aS,6aS)-9-bromo-4-methoxy-7,7-dimethyl-7,12,12a,6a-tetrahydrochromano[4,3-b]quinoline]
ABCA1 Induction Fold Increase over DMSO Vehicle: 7.4 FOLD INCREASE

CC(C)=CCOC(=O)c1ccc2c(c1)OCC1C2Nc2ccc(CB(O)O)cc2C1(C)C (stereo not shown) [Number 11, 3-methylbut-2-enyl 9-(dihydroxyboramethyl)-7,7-dimethyl-7,12,12a,6a-tetrahydrochromano[4,3-b]quinoline-3-carboxylate]
ABCA1 Induction Fold Increase over DMSO Vehicle: 1.7 FOLD INCREASE

COc1cccc2c1OCC1C2Nc2ccc(-c3nnn[nH]3)cc2C1(C)C (stereo not shown) [Number 19, 4-methoxy-7,7-dimethyl-9-(1,2,3,4-tetraazol-5-yl)-7,12,12a,6a-tetrahydrochromano[4,3-b]quinoline]
ABCA1 Induction Fold Increase over DMSO Vehicle: 5.6 FOLD INCREASE

COc1cccc2c1[C@H]1Nc3cc(C#N)ccc3C(C)(C)[C@H]1CO2 [Number 63, (12aS,6aR)-1-methoxy-7,7-dimethyl-7,12,12a,6a-tetrahydrochromano[4,3-b]quinoline-10-carbonitrile]
ABCA1 Induction Fold Increase over DMSO Vehicle: 3.5 FOLD INCREASE

COc1cccc2c1[C@H]1Nc3ccc(F)cc3C(C)(C)[C@H]1CO2 [Number 55, (12aS,6aR)-9-fluoro-1-methoxy-7,7-dimethyl-7,12,12a,6a-tetrahydrochromano[4,3-b]quinoline]
ABCA1 Induction Fold Increase over DMSO Vehicle: 2.5 FOLD INCREASE

CC1(C)C2=C(Nc3ccc(B(O)O)cc31)c1ccc(C(=O)O)cc1OC2 [Number 17, 9-(dihydroxyboramethyl)-7,7-dimethyl-7,12-dihydro-6H-chromeno[4,3-b]quinoline-3-carboxylic acid]
fold induction at 10 µM: 1.8

CC1(C)c2cc(C(O)(C(F)(F)F)C(F)(F)F)ccc2NC2c3cccc(F)c3OCC21 (stereo not shown) [Number 51, 1,1,1,3,3,3-hexafluoro-2-(4-fluoro-7,7-dimethyl(7,12,12a,6a-tetrahydrochromano[4,3-b]quinolin-9-yl))propan-2-ol]
ABCA1 Induction Fold Increase over DMSO Vehicle: 7.8 FOLD INCREASE

CCS(=O)(=O)N1CCN(C(=O)c2ccc3c(c2)C(C)(C)[C@H]2COc4cccc(OC)c4[C@H]2N3)CC1 [Number 132, ((6aR,12aS)-1-methoxy-6a,7,12,12a-tetrahydro-7,7-dimethyl-6H-chromeno[4,3-b]quinolin-9-yl)(4-ethanesulfonylpiperazin-1-yl)methanone]
fold induction at 10 µM: 4.3

COc1cccc2c1OCC1C2Nc2ccc(C(N)=O)cc2C1(C)C (stereo not shown) [Number 23, 4-methoxy-7,7-dimethyl-7,12,12a,6a-tetrahydrochromano[4,3-b]quinoline-9-carboxamide]
ABCA1 Induction Fold Increase over DMSO Vehicle: 6.1 FOLD INCREASE

COc1cccc2c1[C@H]1Nc3ccc(-c4cnco4)cc3C(C)(C)[C@H]1CO2 [Number 62, (12aS,6aR)-1-methoxy-7,7-dimethyl-9-(1,3-oxazol-5-yl)-7,12,12a,6a-tetrahydrochromano[4,3-b]quinoline]
ABCA1 Induction Fold Increase over DMSO Vehicle: 10.6 FOLD INCREASE

COc1cccc2c1OC[C@@H]1[C@@H]2Nc2ccc(C(=O)O)cc2C1(C)C [Number 49, (12aS,6aS)-4-methoxy-7,7-dimethyl-7,12,12a,6a-tetrahydrochromano[4,3-b]quinoline-9-carboxylic acid]
ABCA1 Induction Fold Increase over DMSO Vehicle: 1.7 FOLD INCREASE

CC1(C)c2cc(C(O)(C(F)(F)F)C(F)(F)F)ccc2N[C@@H]2c3cc(OC(F)(F)F)ccc3OC[C@H]21 [Number 9, 2-[(12aS,6aS)-7,7-dimethyl-2-(trifluoromethoxy)(7,12,12a,6a-tetrahydrochromano[4,3-b]quinolin-9-yl)]-1,1,1,3,3,3-hexafluoropropan-2-ol]
ABCA1 Induction Fold Increase over DMSO Vehicle: 2.4 FOLD INCREASE

CCOP(=O)(Cc1ccc2c(c1)C(C)(C)C1COc3cccc(OC)c3C1N2)OCC (stereo not shown) [Number 180, diethyl(6a,7,12,12a-tetrahydro-1-methoxy-7,7-dimethyl-6H-chromeno[4,3-b]quinolin-9-yl)methylphosphonate]
fold induction at 10 µM: 2.2

CC1(C)c2cc(C(=O)N3CCNCC3)ccc2N[C@@H]2c3c(F)cccc3OC[C@@H]21 [Number 130, ((6aR,12aS)-1-fluoro-6a,7,12,12a-tetrahydro-7,7-dimethyl-6H-chromeno[4,3-b]quinolin-9-yl)(piperazin-1-yl)methanone]
fold induction at 10 µM: 4.2

CCS(=O)(=O)N1CCN(C(=O)c2ccc3c(c2)C(C)(C)[C@H]2COc4c(OC)cccc4[C@H]2N3)CC1 [Number 134, ((6aR,12aS)-4-methoxy-6a,7,12,12a-tetrahydro-7,7-dimethyl-6H-chromeno[4,3-b]quinolin-9-yl)(4-ethanesulfonylpiperazin-1-yl)methanone]
fold induction at 10 µM: 5.8

COc1cccc2c1[C@H]1Nc3ccc(-c4ccc(S(N)(=O)=O)cc4)cc3C(C)(C)[C@@H]1CO2 [Number 97, 4-((12aS,6aS)-1-methoxy-7,7-dimethyl-7,12,12a,6a-tetrahydrochromano[4,3-b]quinolin-9-yl)benzenesulfonamide]
ABCA1 Induction Fold Increase over DMSO Vehicle: 5.7 FOLD INCREASE

COc1ccc2c(c1)C(C)(C)[C@@H]1COc3cccc(OC)c3[C@H]1N2C [Number 176, (6aS,12aS)-6a,7,12,12a-tetrahydro-1,9-dimethoxy-7,7,12-trimethyl-6H-chromeno[4,3-b]quinoline]
fold induction at 10 µM: 2.9

COc1cc(Cl)cc2c1OCC1C2Nc2ccc(NS(=O)(=O)c3ccc(C)cc3)cc2C1(C)C (stereo not shown) [Number 105, (2-chloro-4-methoxy-7,7-dimethyl(7,12,12a,6a-tetrahydrochromano[4,3-b]quinolin-9-yl))[(4-methylphenyl)sulfonyl]amine]
ABCA1 Induction Fold Increase over DMSO Vehicle: 3.6 FOLD INCREASE

COc1cc(-c2cn[nH]c2)cc2c1OC[C@H]1[C@@H]2Nc2ccc(-c3cnco3)cc2C1(C)C [Number 159, (6aR,12aS)-6a,7,12,12a-tetrahydro-4-methoxy-7,7-dimethyl-9-(oxazol-5-yl)-2-(1H-pyrazol-4-yl)-6H-chromeno[4,3-b]quinoline]
fold induction at 10 µM: 7.6

COc1cccc2c1OCC1C2Nc2ccc(C(O)(C(F)(F)F)C(F)(F)F)cc2C1(C)C (stereo not shown) [Number 33, 1,1,1,3,3,3-hexafluoro-2-(4-methoxy-7,7-dimethyl(7,12,12a,6a-tetrahydrochromano[4,3-b]quinolin-9-yl))propan-2-ol]
ABCA1 Induction Fold Increase over DMSO Vehicle: 6.4 FOLD INCREASE

COc1cccc2c1[C@H]1Nc3ccc(C(=O)N4CCN(C(=O)OC(C)(C)C)CC4)cc3C(C)(C)[C@H]1CO2 [Number 125, ((6aR,12aS)-6a,7,12,12a-tetrahydro-1-methoxy-7,7-dimethyl-6H-chromeno[4,3-b]quinolin-9-yl)(4-tert-butyl-carboxylate-piperazin-1-yl)methanone]
ABCA1 Induction Fold Increase over DMSO Vehicle: 4.1 FOLD INCREASE

COc1cccc2c1OCC1C2Nc2ccc(Cc3nnn[nH]3)cc2C1(C)C (stereo not shown) [Number 76, 4-methoxy-7,7-dimethyl-9-(1,2,3,4-tetraazol-5-ylmethyl)-7,12,12a,6a-tetrahydrochromano[4,3-b]quinoline]
ABCA1 Induction Fold Increase over DMSO Vehicle: 6.0 FOLD INCREASE

COc1ccc2c(c1)C(C)(C)[C@H]1COc3cccc(OC)c3[C@H]1N2Cc1ccccc1 [Number 158, (6aR,12aS)-12-benzyl-6a,7,12,12a-tetrahydro-1,9-dimethoxy-7,7-dimethyl-6H-chromeno[4,3-b]quinoline]
fold induction at 10 µM: 9.2

CC(C)(C)OC(=O)N1CCN(C(=O)c2ccc3c(c2)C(C)(C)[C@H]2COc4cccc(F)c4[C@H]2N3)CC1 [Number 126, ((6aR,12aS)-6a,7,12,12a-tetrahydro-1-fluoro-7,7-dimethyl-6H-chromeno[4,3-b]quinolin-9-yl)(4-tert-butyl-carboxylate-piperazin-1-yl)methanone]
ABCA1 Induction Fold Increase over DMSO Vehicle: 7.3 FOLD INCREASE
